Assay results from article PMC11783601, “Analogue-Sensitive Inhibition of Histone Demethylases Uncovers Member-Specific Function in Ribosomal Protein Synthesis” (Journal of the American Chemical Society, 2025).
“Also recorded” adds a separate entry of the source.

Target: T1, full-length KDM4A-F185A (asKDM4A) (Homo sapiens, UniProt O75164, F185A)
T1 construct: we generated the F185A mutation in full-length KDM4A carrying all of the functional domains; host or cells: HEK293T
Experiment: H3K9me3 Western blot of nuclear extracts of transfected HEK293T cells
Format: cell-based
Details: varying concentrations (25-200 µM)
Description: HEK293T cells were transiently transfected with asKDM4A and treated with varying concentrations of 6A or 6B. […] To further confirm the activity of the enzyme–inhibitor pair, we performed tandem mass spectrometry of tryptic histones isolated from HEK293T cells expressing asKDM4A in the presence or absence of 100 μM 6A.
KDM4A mammalian expression plasmid in CMV vector was purchased from Addgene (plasmid #24180). KDM4B mammalian expression plasmid in CMV vector was purchased from Addgene (plasmid #24181). KDM4C mammalian expression plasmid in CMV vector was purchased from Addgene (plasmid #24214). KDM4D mammalian expression plasmid in pReciever vector was purchased from Genecopoia (EX-Z0917-M06.) KDME mammalian expression plasmid in pRP-EXP was designed from Vector Builder. The KDM4A-F185A, KDM4B-F186A, KDM4C -F187A, KDM4D-F189A, and KDM4E F186A mutants were generated using Quikchange Lightening Mutagenesis Kit (Agilent) according to manufacturer’s protocol and confirmed by Sanger […]
For the time dependent imaging, cells containing the transfected KDM4A mutant were identified by their HA signal. […] The mean signal was then measured for H3K9me3 or BrdU only within the cells expressing the KDM4A mutant. To compare changes in H3K9me3 or BrdU between trials, the quantification values were normalized to the mean signal at t=0. […]

T1 sequence (O75164 whole entry F185A, the tested form may be a part): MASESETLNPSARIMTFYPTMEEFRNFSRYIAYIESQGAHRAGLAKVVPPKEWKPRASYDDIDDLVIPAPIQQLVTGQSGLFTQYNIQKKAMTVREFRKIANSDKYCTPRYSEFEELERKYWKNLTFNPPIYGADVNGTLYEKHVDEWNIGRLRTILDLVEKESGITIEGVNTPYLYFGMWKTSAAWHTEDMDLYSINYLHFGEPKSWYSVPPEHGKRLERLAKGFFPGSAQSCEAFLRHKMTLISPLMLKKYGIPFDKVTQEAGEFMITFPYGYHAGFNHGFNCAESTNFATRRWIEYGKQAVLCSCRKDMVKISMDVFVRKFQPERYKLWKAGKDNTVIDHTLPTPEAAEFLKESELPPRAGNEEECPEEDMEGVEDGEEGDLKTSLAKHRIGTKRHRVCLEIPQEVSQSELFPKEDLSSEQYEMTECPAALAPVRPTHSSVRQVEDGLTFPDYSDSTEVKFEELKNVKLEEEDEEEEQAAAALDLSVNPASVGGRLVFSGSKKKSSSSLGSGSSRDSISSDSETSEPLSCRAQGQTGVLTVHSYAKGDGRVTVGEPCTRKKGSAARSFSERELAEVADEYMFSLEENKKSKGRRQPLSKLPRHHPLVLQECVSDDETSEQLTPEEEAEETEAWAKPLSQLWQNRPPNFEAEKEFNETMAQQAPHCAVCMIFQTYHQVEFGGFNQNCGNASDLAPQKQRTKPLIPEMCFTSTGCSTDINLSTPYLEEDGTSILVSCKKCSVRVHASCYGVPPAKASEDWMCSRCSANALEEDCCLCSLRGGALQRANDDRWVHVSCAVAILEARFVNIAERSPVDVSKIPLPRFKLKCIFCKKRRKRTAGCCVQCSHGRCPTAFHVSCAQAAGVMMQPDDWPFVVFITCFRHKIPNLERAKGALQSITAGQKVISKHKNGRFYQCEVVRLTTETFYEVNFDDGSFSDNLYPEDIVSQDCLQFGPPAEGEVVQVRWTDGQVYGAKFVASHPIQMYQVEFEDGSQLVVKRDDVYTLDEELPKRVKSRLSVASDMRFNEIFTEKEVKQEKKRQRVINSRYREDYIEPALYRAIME

| Compound | inhibition of asKDM4A (F185A) H3K9me3 demethylation |
| --- | --- |
| CCCCCCCCOC(=O)C(=O)NC(CC(C)C)C(=O)O [6A, L-Leu octyl-ester NOG] | Dose-dependent inhibition; also recorded: inhibited by both prodrugs in a dose-dependent manner |
| CC(C)CC(NC(=O)C(=O)OCc1cccc(C(F)(F)F)c1)C(=O)O [6B, L-Leu TFMB-ester NOG] | Dose-dependent inhibition; also recorded: inhibited by both prodrugs in a dose-dependent manner |
